Assay results from US9522978B2, “PI polyamide” (NIHON UNIVERSITY, priority 2013, dated 2016).

Assays:
[1] = test system: prostate cancer cells (LNCaP) tumor; experiment: Effect of the PI polyamide on a tumor in nude mice injected with LNCaP; format: in vivo; conditions: tail vein 6 mg/kg once per week for 4 weeks, compared to PI polyamide (control), FIG. 11
Description: The effect of the PI polyamide on a tumor was confirmed.
(§1) To 7-week-old male nude mice (n=10), 3×10^6 prostate cancer cells (LNCaP) were subcutaneously injected at the right flank. A tumor size was monitored by caliper measurement every 3 days. When the tumor size reaches […], the PI polyamide (1) or the PI polyamide (control) dissolved in dH2O was injected from a tail vein at 6 mg/kg bodyweight (PI polyamide (1): n=4, PI polyamide (control): n=6).
(§2) The injection was performed once per week for 4 weeks and the tumor size was measured every week. After one week from the last injection, the nude mice were dissected to excise the tumors.

[2] = test system: LNCaP cells; experiment: Evaluation of cell migration ability (cell migration assay); format: cell-based, Human; conditions: 5 μM, 3 days, compared to PI polyamide (control), FIGS. 9 and 10
Description: After culturing cells into which the PI polyamide (1) was introduced and cells into which the PI polyamide (control) was introduced for comparison, the migration ability of the cells was examined by a cell migration assay using a cell culture insert and a 8.0 μm pore size PET filter (manufactured by Becton Dickinson).
In particular, after fibronectin (manufactured by Sigma) diluted with PBS to 10 μg/ml was allowed to act on a culture dish for 30 minutes to form a lower filter, 700 μl of the Phenol-Red-containing RPMI 1640 medium of 3. (1) was added to a lower chamber.
The LNCaP cells were cultured for 3 days in the Phenol-Red-containing medium of 3. (1) to which each of the PI polyamides was added at 5 μM and divided into units of 5×10^4 cells, and each unit of cells was suspended in 300 μl of the Phenol-Red-containing medium of 3. (1) and added to the upper chamber. After the cells were cultured at 37° C. under the condition of 5% CO2, the filter was peeled off.
The cells on the lower filter were fixed by methanol for 30 minutes and then incubated for 30 seconds in Gimsa's stain solution (manufactured by Muto Pure Chemicals). Subsequently, the cells were observed by a microscope of 200 magnifications to count the number of cells, thereby evaluating the cell migration ability.

[3] = test system: LNCaP cells; experiment: Evaluation of proliferation ability by MTS assay; format: cell-based, Human
Description: After treatment with the PI polyamide (1) or the PI polyamide (control) for comparison, the proliferation ability of these cells were examined by MTS assay.
In particular, the LNCaP cells were seeded on a 96-well plate to 5×10^3 cells in total and cultured for 3 days in the Phenol-Red-free medium of 3. (2) to which each of the PI polyamides was added at 1 μM or 5 μM. Subsequently, DHT (100 nM) of 4. was added into the medium to apply androgen stimulation. After the stimulation, each of the cells were cultured for 24, 48, or 96 hours.
After the specified stimulation time, 10 μl of an MTS reagent (Cell Titer 96 AQueous One Solution Cell Proliferation Assay, Promega, Madison Wis.) was added to the cells before incubation for 1 hour. Subsequently, the absorbance (490 nm) of the cells was measured and the numbers of the cultured cells were examined to evaluate the cell proliferation ability.

[4] = test system: ACSL3 gene; experiment: Examination of expression of ACSL3 gene by RT-PCR in LNCaP cells; format: cell-based, Human
Description: The expression of ACSL3 Gene was examined by RT-PCR in a cell into which each of the PI polyamides (1) to (3) was introduced. For comparison, the same examination was conducted for a cell into which the PI polyamide (control) was introduced.
The LNCaP cells were cultured for 3 days in the Phenol-Red-free medium of 3. (2) to which each of the PI polyamides was added at 5 μM. Subsequently, DHT (100 nM) of 4. was added into the medium to apply androgen stimulation.
After RNA is extracted from the cells by using Isogen (Nippon Gene) in accordance with a manual, cDNA was prepared by using PrimeScript (registered trademark) Reverse Transcriptase (manufactured by TaKaRa).
Each of the cDNAs prepared in 1) was used as a template DNA to examine with primers listed in Table 4 the presence/absence of expression of a fusion gene or an ERG gene in the prostate cancer cell into which each of the PI polyamides was introduced. In this RT-qPCR, Power SYBR (registered trademark) Green PCR Master Mix (manufactured by Applied Biosystems) was used.

[5] = test system: ACSL3 transcriptional regulatory region (AR response region); experiment: Luciferase assay of AR activity in ACSL3 transcriptional regulatory region; format: cell-based, Human; conditions: LNCaP, 1 μM or 5 μM, DHT 100 nM, compared to same amount of PI polyamide (control), FIG. 6
Description: (§3) About 1 kb of AR binding site (ARBS) located 63 kb upstream of the ACSL3 transcription start point was extracted (SEQ ID NO:10) and insert into a luciferase vector (pGL3 promoter vector: Promega, Madison, Wis.). This vector was used for transfection of a prostate cancer cell (LNCaP) cultured for about 60 hours in the Phenol-Red-free medium of 3. (2) by using FuGENE (registered trademark) HD (Roche Applied Science) as a transection reagent in accordance with the protocol thereof.
(§4) After about 12 hours, androgen stimulation using 100 nM of DHT and introduction of the PI polyamide (1) or PI polyamide (control) (1 μM or 5 μM) were performed and followed by a luciferase assay. This test was conducted by using prostate cancer cells (LNCaP) incorporated with a PSA promoter region (SEQ ID NO:22) known to have AR response activity as a positive control for the luciferase vector.

[6] = test system: ACSL3 protein; experiment: Western blotting of ACSL3 protein from excised tumors; format: in vivo, Human; conditions: nude mice, tail vein 6 mg/kg once per week for 4 weeks, FIG. 12
Description: as §1, §2
FIG. 12 depicts a result of western blotting with an ACSL3 antibody of protein extracted using a lysis buffer (NP40 buffer) from the excised tumors (two individuals #1 and #2) (upper portion of FIG. 12; lower portion indicates expression of β-actin protein).

[7] = test system: PSA promoter region; experiment: Luciferase assay of AR activity in PSA promoter region (positive control); format: cell-based, Human; conditions: LNCaP, compared to same amount of PI polyamide (control), FIG. 7
Description: as §3, §4

[8] = test system: Oct1 oligo DNA (Oct1 gene binding sequence, SEQ ID NO:1); experiment: DNA Binding Assay (gel electrophoretic pattern); conditions: 5 μl of 0.2 mM PI polyamide mixed with 15 μl hairpin double strand DNA, 37° C. 1 hour
Description: For each of the PI polyamides (1) to (3) (three types) generated in 5, a DNA Binding Assay of the following steps 1) and 2) was performed to confirm binding to the Oct1 gene binding sequence (SEQ ID NO:1). The PI polyamide (control) was also examined in terms of the presence/absence of binding to the Oct1 gene binding sequence (SEQ ID NO:1).
1) Molecules (50-base) were created that have Oct1 oligo DNA including the same base sequence as the Oct1 gene binding sequence (SEQ ID NO:1) labelled with FITC, and the oligo at a final concentration of 1 μM was heated to 100° C. in an annealing buffer (20 mM Tris-HCl, 2 mM EDTA, 200 mM NaCl). The oligo was cooled for 2 hours in stages to 30° C. As a result, the Oct1 oligo DNA underwent self-annealing and forms a double strand in a hairpin shape.
2) 15 μl of solution containing the hairpin-shaped double strand DNA of 1) was mixed with 5 μl of each of the 0.2 mM PI polyamides (1) to (3) and PI polyamide (control) and incubated at 37° C. for 1 hour to acquire a mixed solution.
3) The mixed solution of 2) was electrophoresed in 5-20% acrylamide gel (TBE buffer) and an electrophoretic pattern was monitored with LAS 4000 (manufactured by GE Healthcare Japan) to determine the presence/absence of binding from a difference in the electrophoretic pattern.

[9] = 5 μM, 3 days, androgen stimulation DHT 100 nM, FIG. 4
[10] = concentration and time not stated

| Compound | formation of tumor [1] | cell migration ability (invasive potential) [2] | cell proliferation ([3]; 5 μM, after 48 hours of incubation, compared to PI polyamide (control) 5 μM, FIG. 8) | cell proliferation ([3]; 5 μM, after 96 hours of incubation, FIG. 8) | expression of the ACSL3 gene ([4]; 5 μM (1 μM or 5 μM tested), androgen stimulation, FIG. 5) | expression of the ACSL3 gene [4, 9] | AR activity in the ACSL3 transcriptional regulatory region (AR response region) [5] | expression of the ACSL3 protein in excised tumors [6] | AR activity in the PSA promoter region [7] | cell proliferation [3, 10] | binding to the Oct1 oligo DNA (presence/absence) [8] |
| --- | --- | --- | --- | --- | --- | --- | --- | --- | --- | --- | --- |
| CC(=O)Nc1cc(C(=O)Nc2cc(C(=O)NCCC(=O)Nc3cn(C)c(C(=O)Nc4cc(C(=O)Nc5cc(C(=O)NCCCC(=O)Nc6cc(C(=O)Nc7cn(C)c(C(=O)Nc8cc(C(=O)NCCC(=O)Nc9cn(C)c(C(=O)Nc%10cc(C(=O)NCCC(=O)NCCCN(C)C)n(C)c%10)n9)n(C)c8)n7)n(C)c6)n(C)c5)n(C)c4)n3)n(C)c2)n(C)c1 [PI polyamide (1), AcPyPyβImPyPyγPyImPyβImPyβDp] | remarkably inhibited | significantly inhibited | significantly inhibited | further significantly inhibited | particularly inhibited | inhibited | significantly reduces | remarkably inhibited | no significant difference | – | – |
| CC(=O)Nc1cn(C)c(C(=O)Nc2cc(C(=O)NCCC(=O)Nc3cc(C(=O)Nc4cc(C(=O)Nc5cc(C(=O)NCCCC(=O)Nc6cc(C(=O)Nc7cc(C(=O)Nc8cc(C(=O)NCCC(=O)Nc9cn(C)c(C(=O)Nc%10cc(C(=O)NCCC(=O)NCCCN(C)C)n(C)c%10)n9)n(C)c8)n(C)c7)n(C)c6)n(C)c5)n(C)c4)n(C)c3)n(C)c2)n1 [PI polyamide (2), AcImPyβPyPyPyγPyPyPyβImPyβDp] | – | suppressed in the same way | – | – | – | inhibited | – | – | – | suppressed in the same way | – |
| CC(=O)Nc1cc(C(=O)Nc2cc(C(=O)NCCC(=O)Nc3cc(C(=O)Nc4cc(C(=O)Nc5cc(C(=O)NCCCC(=O)Nc6cn(C)c(C(=O)Nc7cc(C(=O)Nc8cc(C(=O)NCCC(=O)Nc9cc(C(=O)Nc%10cc(C(=O)NCCC(=O)NCCCN(C)C)n(C)c%10)n(C)c9)n(C)c8)n(C)c7)n6)n(C)c5)n(C)c4)n(C)c3)n(C)c2)n(C)c1 [PI polyamide (3), AcPyPyβPyPyPyγImPyPyβPyPyβDp] | – | suppressed in the same way | – | – | – | inhibited | – | – | – | suppressed in the same way | – |
| AcPyPyPyImβImγPyβPyImβImβDp [PI polyamide (control), reference compound] | – | – | – | – | – | not inhibited | – | expressed | – | – | no binding occurs |
